Data set [1] has as its system lactate dehydrogenase (LDH) in bovine pulp. Description: Residual LDH activity in calf pulp after treatment. The data set is classed as biochemical. An excerpt:
(§1) Two assays were used to evaluate the effectiveness of the composition of the present invention as a pulpotomy agent. The first was based on the diffusion of bovine serum albumin (BSA) from collagen-BSA gel wafers following fixation. That methodology was based on the method described in Flitney, F. W., "The time course of the fixation of albumin by formaldehyde, glutaraldehyde, acrolein and other higher aldehydes," 85 J. Royal Microscop. […] 353 (1966)). The collagen-BSA gel was formulated by Flitney to simulate the cytoplasm of the cell. Diffusion of BSA from the gel was intended to provide a reproducible model by which the relative change in the rate of leakage of protein through the cell membrane could be monitored during fixation with different techniques. This procedure was also modified as described in Example III to allow the evaluation of the depth of penetration of the composition of the present invention into adjoining cells of the pulpal tissue. The second assay was the determination of residual lactate dehydrogenase activity (LDH) in bovine pulp following treatment with the composition of the present invention.
The effectiveness of the pulpotomy agent prepared as described in Example I, above, was also evaluated by an assay for residual LDH Activity. In this assay, calf pulp was harvested from freshly extracted molars, minced into pieces of approximately 1 mm^3, divided into aliquots weighing approximately 0.5 g, and stored at -20° C. until used. After thawing each aliquot was wet weighed and incubated in the 4% glutaraldehyde-containing pulpotomy agent prepared as described in Example I for 4 minutes. The treated sample was homogenized for one minute in ten ml of 0.2M Tris, pH 7.3, using a homogenizer. Following centrifugation for ten minutes at 300 rpm on a clinical centrifuge, the supernatant was decanted. One hundred microliters of the supernatant was added to a cuvette containing 2.8 ml Tris HCl, 1.0 ml of […], and 0.1 ml of 30 mM sodium pyruvate and vortexed for 10 seconds. The change in absorbence per minute was recorded on a spectrophotometer at 345 nm at room temperature. The activities were calculated as units/g wet weight/min, and the mean was calculated for five samples in each group. The values are reported as a percentage of controls and statistics were the same as described in Example II, above.

Data set [2] deals with bovine serum albumin (BSA) in collagen-BSA gels (Bos taurus, UniProt P02769). The experiment in a line: Penetration (depth of fixation) assay: collagen-BSA gels submerged intact in vials.
Excerpt: as §1

The target of data set [3] is bovine serum albumin (BSA) in collagen-BSA gel wafers (Bos taurus, UniProt P02769). The experiment in a line: Collagen-BSA gel wafer assay: BSA diffusing from gel after fixation. Particulars: for % of control retained (diluted 10 fold) / % change relative to fresh glutaraldehyde / % of control retained / % change relative to freshly prepared 4% glutaraldehyde: diluted 10 fold.
Excerpt: as §1
The effectiveness of the fixative ability of the pulpotomy agent of the present invention was assayed according to the method set out in Flitney, supra. Briefly, that method is as follows. Collagen gels (0.3 g/2.8 ml) were prepared containing a physiological salt solution and bovine serum albumin (1 g BSA/10 ml). The mixture was dissolved in a boiling water bath and measured amounts were pipetted into plastic vials. Collagen-BSA wafers were removed from the vials and incubated in a buffered glutaraldehyde solution and the 4% glutaraldehyde-containing pulpotomy agent prepared as described in Example I, above, for 4 minutes. Wafers treated with distilled water or sodium phosphate buffer for identical time periods were used as respective controls. Following incubation, relative fixation of protein in the gels was ascertained by measuring the amount of BSA which diffuses from the gels into 4 ml of water during a 30 minute period. BSA was quantified by the method described by Bradford, M. M., "A rapid and sensitive method for quantification of microgram quantities of protein utilizing the principles of protein dye binding," 72 Anal. Biochem. 248 (1976).
The quantity of BSA which diffused from each gel is reported below as a percentage of control lost or retained.

The mark [4] stands for this setting: stored at room temperature (25° C.) for eight months.

Chain of bovine serum albumin (BSA) in collagen-BSA gel wafers (P02769 25-607): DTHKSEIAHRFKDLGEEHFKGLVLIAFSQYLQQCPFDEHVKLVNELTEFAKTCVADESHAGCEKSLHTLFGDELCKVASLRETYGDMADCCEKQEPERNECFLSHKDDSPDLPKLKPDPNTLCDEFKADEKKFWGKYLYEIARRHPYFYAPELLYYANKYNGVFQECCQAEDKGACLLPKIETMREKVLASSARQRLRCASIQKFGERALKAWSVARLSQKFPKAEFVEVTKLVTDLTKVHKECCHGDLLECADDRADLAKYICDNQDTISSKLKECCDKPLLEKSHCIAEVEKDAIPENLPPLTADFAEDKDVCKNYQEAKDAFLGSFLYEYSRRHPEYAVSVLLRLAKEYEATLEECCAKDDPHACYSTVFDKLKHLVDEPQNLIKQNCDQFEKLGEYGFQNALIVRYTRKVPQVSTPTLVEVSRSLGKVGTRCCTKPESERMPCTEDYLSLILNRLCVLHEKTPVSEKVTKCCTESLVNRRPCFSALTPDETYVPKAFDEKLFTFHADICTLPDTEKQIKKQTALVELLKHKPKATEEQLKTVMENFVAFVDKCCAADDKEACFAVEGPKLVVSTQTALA
Chain of bovine serum albumin (BSA) in collagen-BSA gels (P02769 25-607): as above

In the case of `O=CCCCC=O` [4% Glutaraldehyde, glutaraldehyde], the “% of control retained (LDH activity)” value in data set [1] (Fresh, mean of 5 samples) stood at 6%; in data set [1] (setting [4]), 3%; in data set [1] (stored in the cold (5° C.) for eight months) it was 4%. In addition, the “% of control retained (residual LDH activity)” value in data set [1] (calf pulp incubated 4 minutes, five samples) came to 3.0%. The “LDH inhibition versus concentration” value in data set [1] (different concentrations for any treatment time, FIG. 3) was “log-dose response”. The “secondary diffusion of BSA (depth of penetration)” value in data set [2] (2, 4, and 8 percent solutions, FIG. 2) is recorded as “decreased by approximately the same amount”. For the same compound, in data set [2] (vials with gels intact submerged 4 minutes, five samples), the “% of control retained (BSA in gel, penetration)” value worked out at 27%. Further, the “% of control retained (diluted 10 fold)” value in data set [3] (Fresh, mean of four samples) is 80%; in data set [3] (stored at room temperature for nine months), 72%; in data set [3] (stored in the cold for nine months), 72%. In addition, the “% of control gel retained” value in data set [3] (Fresh, heat assay, mean of four samples) turned out to be 80%; in data set [3] (Heated: storage at 37° C. for three months), 53%. The “% of control retained (undiluted solutions)” value in data set [3] (Fresh, mean of six samples) is given as 85%; in data set [3] (setting [4]), 85%; in data set [3] (stored cold (5° C.) for eight months), 85%. In addition, the “% change relative to fresh glutaraldehyde” value in data set [3] (Heated at 37° C. for 3 Months) is -34%; in data set [3] (Stored at 25° C. for 3 Months) it was -21%. Moreover, the “% of control retained” value turned out to be 53% in data set [3] (Heated at 37° C. for 3 Months); 63% in data set [3] (Stored at 25° C. for 3 Months); 80% in data set [3] (made up fresh, mean of four samples). Moreover, the “% change relative to freshly prepared 4% glutaraldehyde” value is -8% in data set [3] (cold nine months) and -11% in data set [3] (room temperature nine months). Also, the “% of control retained (BSA in gel)” value in data set [3] (wafers incubated 4 minutes, BSA diffusing into 4 ml water during 30 minutes, five samples) came out at 78%.

The values are drawn from patent publication US4859186A, “Pulpotomy agent and method of use” (priority 1988, dated 1989).
